# Laboratory results as given in PubChem BioAssay AID1919008 (Molecular Pharmacology Branch, DTP, NCI, 2023).
# “And” between values parts separate entries of the source, which are not always exact repeats. Equal entries are not always repeated.
# Test system: DMS-114 complex spheroids with HUVEC/MSC, growth % test/control
# Test: Anticancer human tumor DMS-114 cell line growth inhibition [AhR];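 note: spheroids exposed to agents for 7 days before readout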;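 for viability, T/C: 100% = DMSO vehicle control wells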
# Details: for viability, T/C: stronger effect = lower value
# Description: Multicellular complex tumor spheroid response to aryl hydrocarbon receptor antagonists in combination with a variety of drugs and investigational agents in selected tumor cell lines
# The current study was undertaken to assess response to aryl hydrocarbon receptor antagonists in combination with standard-of-care drugs and investigational agents in solid tumor complex spheroid models. Complex spheroids include a stromal component modeled by human endothelial cells (HUVEC) and fibroblasts modeled by human mesenchymal stem cells (MSCs). The concentration ranges selected for each drug and investigational agent were based upon clinically achievable concentrations if the clinical Cmax of the agent was known.
# Compounds. The drugs and investigational agents: BAY 2416964 (NSC825713), GNF351 (NSC835774), CH-223191 (NSC835775), CPI-455 (NSC825282), aza-TdCyd (NSC777586), decitabine (NSC127716), belinostat (NSC758774), entinostat (NSC756642), pevonedistat (NSC761192), tazemetostat (NSC777109), talazoparib (NSC765396), olaparib (NSC753686), selinexor (NSC780203), nedisertib (M3814, NSC802822), bortezomib (NSC756655), venetoclax (NSC766270), doxorubicin (NSC123127), elimusertib (BAY189344, NSC800525), ceralasertib (AZD6738, NSC777638), TAK-243 (NSC785004), alisertib (NSC759677), etoposide (NSC141540), topotecan (NSC609699), eribulin (NSC707389), gemcitabine (NSC613327), carboplatin (NSC241240), cisplatin (NSC119875), and SN-38 (NSC673596) were obtained from the National Cancer Institute (NCI) Developmental Therapeutics Program Chemical Repository (32). The FDA-approved anticancer drug set is available from the Developmental Therapeutics Program at https://dtp.cancer.gov/organization/dscb/obtaining/available plates.htm. […] The stock solutions were prepared in dimethyl sulfoxide (DMSO, Sigma-Aldrich, St. Louis, MO, cat. D2650), except for the platinum compounds which were prepared in saline (Quality Biological, Gaithersburg, MD, cat. 114-055-101), at 800-fold the tested concentration and stored at -70 degrees C prior to their use. All drugs and investigational agents were tested over a range starting from a high concentration at or near the clinical Cmax and decreasing in half-log increments. If the clinical Cmax for an agent had not been determined, the highest concentration tested was 10 microM (Table 1).
# Cell Culture. All cells were maintained in an incubator at 37 degrees C and 5% CO2 with 95% humidity. The PDC lines were cultured according to standard operating procedures established by the NCI PDMR (https://pdmr.cancer.gov). Briefly, all PDCs were thawed and cultured in Matrigel-coated flasks prepared with a working solution of 1X Ham's F-12 nutrient mix, without supplementation (Invitrogen, Waltham, MA, cat. 11765054), 100 U/mL penicillin-streptomycin (Invitrogen, cat. 15140122), and 2.5% Matrigel (Corning Inc., Corning, NY, cat. 354248) for the first three passages. All PDCs were cultured in complete DMEM/F-12 media containing advanced DMEM/F-12 (Invitrogen, cat. 12634028), 4.9% defined fetal bovine serum, heat inactivated (HyClone Laboratories Inc., Logan, UT, cat. SH30070.03HI), 389 ng/mL hydrocortisone (Sigma-Aldrich, cat. H4001), 9.7 ng/mL human EGF recombinant protein (Invitrogen, cat. PHG0313), 23.4 microg/mL adenine (Sigma-Aldrich, cat. A2786), 97.3 U/mL penicillin-streptomycin (Invitrogen, cat. 15140122), 1.9 mM L-glutamine (Invitrogen, cat. 25030081), and 9.7 microM Y-27632 dihydrochloride (Tocris Bioscience, Bristol, United Kingdom, cat. 1254). The PDCs were cultured in complete DMEM/F12 media without 10 microM Y-27632 dihydrochloride for at least two passages prior to the screen. The established cell lines NCI-H1341 and […] were cultured in DMEM/F-12, HEPES (Invitrogen, cat. 11330032), 5% defined fetal bovine serum (HyClone Laboratories Inc., cat. SH30070.03), ITS premix universal culture supplement [insulin (5 microg/mL), transferrin (5 microg/mL), and selenious acid (5 ng/mL)] […]
Compound,"viability, T/C (compound 0.0316 µM)","viability, T/C (compound 0.1 µM)","viability, T/C (compound 0.316 µM)","viability, T/C (compound 1 µM)","viability, T/C (compound 3.16 µM)","viability, T/C (compound 10 µM)",IC50 (curve of compound),further results
COc1cccc2c1C(=O)c1c(O)c3c(c(O)c1C2=O)CC(O)(C(=O)CO)CC3OC1CC(N)C(O)C(C)O1 (stereo not given),23.9% and 68.6% and 44.3%,18% and 54.1% and 32.1%,4.97% and 18.6% and 9.53%,0.27% and 1.97% and 1.19%,0.18% and 0.45% and 0.38%,0.28% and 0.73% and 0.56%,< 31.6 nM and 115 nM,–
Cc1ccccc1N=Nc1ccc(NC(=O)c2ccnn2C)c(C)c1,–,99.4% [middle of 20 runs],101% [middle of 20 runs],97.6% [middle of 20 runs],–,94% [middle of 20 runs],–,"IC50 (compound alone, run of 07/26/2022): > 10000 nM"
Cn1ncnc1C1c2n[nH]c(=O)c3cc(F)cc(c23)NC1c1ccc(F)cc1 (stereo not given),93.1% and 107% and 99.9%,76.3% and 101% and 86.2%,–,–,–,–,> 100 nM,"viability, T/C (compound 0.000316 µM): 100% and 96.9% and 109%; viability, T/C (compound 0.001 µM): 98.4% and 102% and 98%; viability, T/C (compound 0.00316 µM): 95.9% and 96.9% and 99.1%; viability, T/C (compound 0.01 µM): 96% and 100% and 99.3%"
NS(=O)(=O)OCC1CC(n2ccc3c(NC4CCc5ccccc54)ncnc32)CC1O (stereo not given),56% and 124% and 59.6%,31.8% and 84.4% and 33.5%,17.6% and 31.9% and 17.2%,6.55% and 22.7% and 10.3%,4.52% and 19.9% and 8.23%,4.43% and 14.3% and 5.53%,42.3 nM and 215 nM and 48 nM,–
Nc1ccccc1NC(=O)c1ccc(CNC(=O)OCc2cccnc2)cc1,89.7% and 96.8% and 108%,85% and 94.1% and 92.8%,68% and 90.9% and 67.3%,37.8% and 74.1% and 40.4%,15.6% and 44% and 22.9%,8.33% and 24.4% and 14.5%,627 nM and 2520 nM and 665 nM,–
Nc1ccn(C2OC(CO)C(O)C2(F)F)c(=O)n1 (stereo not given),9.8% and 13.2% and 25.1%,8.85% and 12.6% and 26.8%,9.58% and 12.2% and 25.9%,10.4% and 11% and 25.1%,9.16% and 11.7% and 24.5%,9.05% and 10.8% and 25.4%,< 31.6 nM,–
Nc1ncn(C2CC(O)C(CO)O2)c(=O)n1 (stereo not given),105% and 108% and 88.3%,83.8% and 112% and 109%,66.8% and 110% and 78%,53.1% and 110% and 66.1%,–,–,> 1000 nM,"viability, T/C (compound 0.00316 µM): 91.9% and 109% and 106%; viability, T/C (compound 0.01 µM): 97.6% and 110% and 95%"
Nc1ncn(C2CC(O)C(CO)S2)c(=O)n1 (stereo not given),–,–,–,–,–,–,222 nM and > 300 nM,"viability, T/C (compound 0.000949 µM): 97.3% and 101% and 110%; viability, T/C (compound 0.003 µM): 108% and 102% and 116%; viability, T/C (compound 0.00949 µM): 112% and 104% and 102%; viability, T/C (compound 0.03 µM): 88.5% and 101% and 88.9%; viability, T/C (compound 0.0949 µM): 60.1% and 107% and 84.8%; viability, T/C (compound 0.3 µM): 46.1% and 86.9% and 52.9%"
O=C(C=Cc1cccc(S(=O)(=O)Nc2ccccc2)c1)NO,88.4% and 108% and 83%,85.7% and 103% and 74.2%,54.9% and 91% and 60%,29.6% and 69.9% and 26.9%,13.4% and 26.4% and 15.6%,9.67% and 29.7% and 13.6%,424 nM and 1730 nM and 436 nM,–
O=C(C=Cn1cnc(-c2cc(C(F)(F)F)cc(C(F)(F)F)c2)n1)NNc1cnccn1,–,–,–,–,–,–,189 nM and 901 nM and 221 nM,"viability, T/C (compound 0.00949 µM): 106% and 109% and 113%; viability, T/C (compound 0.03 µM): 96.6% and 110% and 97.4%; viability, T/C (compound 0.0949 µM): 64.5% and 108% and 80.5%; viability, T/C (compound 0.3 µM): 40.7% and 87.3% and 37.6%; viability, T/C (compound 0.949 µM): 15% and 48.7% and 18.4%; viability, T/C (compound 3 µM): 5.6% and 17.9% and 7.48%"
O=C(c1cc(Cc2n[nH]c(=O)c3ccccc23)ccc1F)N1CCN(C(=O)C2CC2)CC1,106% and 111% and 105%,110% and 111% and 95.4%,97.3% and 106% and 87.7%,98% and 103% and 96.3%,82.4% and 108% and 76.7%,50.8% and 105% and 60.7%,> 10000 nM,–
